How the values were obtained:
Sclerotinia sclerotiorum = assay: Preventative fungicidal control of white mold on oilseed rape caused by Sclerotinia sclerotiorum (green house); type: in vivo; conditions: 100 ppm, assessed after 14 days, untreated 100%
Protocol: The compound was dissolved in a mixture of acetone and/or dimethylsulfoxide and the wetting agent/emulsifier Wettol, which is based on ethoxylated alkylphenoles, in a ratio (volume) solvent-emulsifier of 99 to 1 to give a total volume of 5 ml. Subsequently, water was added to total volume of 100 ml.
This stock solution was then diluted with the described solvent-emulsifier-water mixture to the final concentration given in the table below.
Oilseed rapes were grown in pots to the 13 to 14 leaf stage. These plants were sprayed to runoff with previously described spray solution, containing the concentration of active ingredient or their mixture mentioned in the table below.
The plants could air-dry. The next day the applicated rape petals were fixed with 25 μl of 2.5% methylcellulose on leaf 1 and 2. 25 μl of a spore suspension of Sclerotinia sclerotiorum was pipetted on each fixed rape petal. After 14 days at 20° C. and a relative humidity of 60% the extent of fungal attack on the leaves was visually assessed as % diseased leaf area.

Botrytis cinerea = assay: Activity against the grey mold Botrytis cinerea in the microtiterplate test; type: cell-based; conditions: 31 ppm, MTP, 405 nm, 7 days after inoculation
Protocol: The active compounds were formulated separately as a stock solution having a concentration of 10000 ppm in dimethyl sulfoxide.
The stock solutions were mixed according to the ratio, pipetted onto a micro titer plate (MTP) and diluted with water to the stated concentrations. A spore suspension of Botrytis cinerea in an aqueous biomalt or yeast-bactopeptone-sodium acetate solution was then added. The plates were placed in a water vapor-saturated chamber at a temperature of 18° C. Using an absorption photometer, the MTPs were measured at 405 nm 7 days after the inoculation.

Corynespora cassiicola = assay: Activity against Corynespora cassiicola in the microtiterplate test; type: cell-based; conditions: 31 ppm, MTP
Protocol: The active compounds were formulated separately as a stock solution having a concentration of 10000 ppm in dimethyl sulfoxide. The stock solutions were mixed according to the ratio, pipetted onto a micro titer plate (MTP) and diluted with water to the stated concentrations. A spore suspension of the Corynespora cassiicola in an aqueous biomalt or yeast-bactopeptone-sodium acetate solution was then added.

| Compound | growth of the pathogen (% diseased leaf area) (Sclerotinia sclerotiorum) | growth of the pathogen (Botrytis cinerea) [%] | growth of the pathogen (Corynespora cassiicola) [%] |
| --- | --- | --- | --- |
| C[C@@H]1N=C(c2cnc3c(F)cccc3c2)c2ccccc2OC1(C)C [Ex-1, (S)-5-(8-fluoroquinolin-3-yl)-2,2,3-trimethyl-2,3-dihydrobenzo[f][1,4]oxazepane] | less than 1% | 0 |  |
| C[C@@H]1N=C(c2cnc3c(F)cccc3c2)c2cccc(F)c2OC1(C)C [Ex-3, (3S)-9-fluoro-5-(8-fluoro-3-quinolyl)-2,2,3-trimethyl-3H-1,4-benzoxazepine] |  | 0 |  |
| C[C@@H]1N=C(c2cnc3ccccc3c2)c2cccc(F)c2OC1(C)C [Ex-4, (3S)-9-fluoro-2,2,3-trimethyl-5-(3-quinolyl)-3H-1,4-benzoxazepine] |  | 0 | 1 |

Reference: patent US20260234160A1, “NEW SUBSTITUTED QUINOLINE COMPOUNDS FOR COMBATITNG PHYTOPATHOGENIC FUNGI” (BASF SE, priority 2023, published 2026)
